In one series the test system is TIMP-1 mRNA. Nature of the series: TIMP-1 mRNA expression by cultured HSC-T6 cells (Northern blot). Particulars: mean ±SEM. Format: cell-based, rat. How it is done:
(§1) The inventors used an established rat HSC cell line, named HSC-T6.
TIMP-1 increases fibrosis deposition by inhibiting its degradation by matrix metalloproteinases. The inventors observed in example 1 that noradrenergic antagonism in vivo led to a drastic decrease in liver TIMP-1 mRNA expression. They have further measured the effect of norepinephrin on TIMP-1 mRNA expression by cultured HSC-T6 cells. Total RNA was purified from cells exposed for 3, 6, or 24 hours to 100 nM norepinephrin. The RNAs were analyzed by Northern blot with a probe specific for rat TIMP-1. The blots were subsequently dehybridized and rehybridized with a probe to rat glyceraldehyde 3-phosphate dehydrogenase to ensure proper loading and transfer. TIMP-1/GADPH ratios were calculated and the results are shown respective to control values without norepinephrin.
Results are expressed as TIMP-1/GAPDH ratios relative to control values (mean ±SEM)

The test system of another series is HSC-T6. In words: Hepatic stellate cell proliferation assay (tetrazolium dye reduction). It is filed as cell-based, rat. How it is done:
FIG. 3: Effect of norepinephrin on hepatic stellate cell (HSC) proliferation. Cells were exposed to increasing concentrations of norepinephrin for 2 days. Cell number was evaluated through the measurement of the reduction of the dye 3-(4,5-dimethylthiazol-2yl)-2,5 diphenyltetrazolium.
FIG. 4: Effect of prazosin on hepatic stellate cell proliferation induced by norepinephrin Cells were exposed to increasing concentrations of prazosin, either alone (open symbols), or in the presence of 100 nM norepinephrin (closed symbols). Cell number was evaluated through the measurement of the reduction of the dye 3-(4,5-dimethylthiazol-2yl)-2,5 diphenyltetrazolium. The marginal proliferation index was calculated as: (ODexperimental sample—ODday 0)/(ODcontrol—ODday 0), where OD is the optical density measured at the end of the experiment.
as §1
Cells were exposed to increasing concentrations of norepinephrin for 2 days. In some experiments, cells were also exposed to increasing concentrations of prazosin. Cell number was evaluated through the measurement of the reduction of the dye 3-(4,5-dimethylthiazol-2yl)-2,5 diphenyltetrazolium.

Series [1] has as its system CCl4-induced hepatocyte necrosis. In words: Acute toxicity of CCl4: liver function tests and area of necrosis. Particulars: co-treatment with CCl4 vs CCl4 alone.
Experimental: Routine liver function blood tests (bilirubin, alkaline phosphatase and transaminases) were performed on an automated analyzer.
Thus, groups of animals treated with 2 administrations of CCl4 with or without 2 injections of OHDA were sacrificed 24 hours after the second CCl4 treatment and evaluated for acute toxicity of CCl4 by serum tests and measurement of the area of necrosis on liver sections.
The percentage of necrosis area was determined on hematoxylin and eosin stained sections by image analysis.
Series [2] relates to CCl4-induced liver fibrosis. In words: CCl4-induced liver fibrosis in rats, fibrosis area by Picro Sirius red image analysis. It is filed as in vivo, rat. Particulars: 2 weeks. How it is done: All experiments were carried out using accepted ethical guidelines. Male Wistar rats (Charles River, St Aubin-les-Elbeuf, France) weighing 200-250 g were used in this study. The animals had free access to food and drinking water. Fibrosis was induced by giving CCl4 (Sigma, St Quentin-Fallavier, France) mixed with olive oil (1vol: 5vol.) at 0.375 ml/kg body weight by gavage, three times a week, on Monday, Wednesday and Friday. Control animals for CCl4 received only olive oil.
Sympathetic chemical denervation was performed with OHDA (Sigma). OHDA was freshly prepared in saline containing 0.4% (w/v) ascorbic acid (Sigma). OHDA was administered intraperitoneally, twice a week on 2 consecutive days (Monday and Tuesday) at the dose of 25 mg/kg body weight. The first injection was given 4 to 6 hours before the first administration of CCl4. Control animals for OHDA received only the solvent.
Thus, 4 groups including each 6 animals could be distinguished. Group I: olive oil and saline alone; group II: olive oil and OHDA alone; group III: CCl4 with saline; group IV: CCl4 with OHDA. These animals were treated for 2 weeks. In another series of experiments, animals were similarly treated for 6 weeks. In that case, both control groups included only 3 animals.
Finally, other animals were treated with the specific α1-adrenergic receptor antagonist prazosin (Sigma), given in drinking water daily at a dose of 50 mg/l during 2 weeks. Group V animals received CCl4 alone, while group VI received CCl4 with prazosin. Both groups included 6 animals.
At the designated time points, the animals were sacrificed. Liver samples were taken from several lobes and either snap frozen in liquid nitrogen, cryopreserved in OCT compound (Sakura, Torrance, Calif.) and snap-frozen in liquid nitrogen-cooled isopentane, or fixed in buffered formalin.
This was done on formalin-fixed, paraffin-embedded sections stained with Picro Sirius red, using image analysis. All samples from a series of experiments were stained simultaneously. Quantitative data were obtained using a computerized image analysis system (Biocom 500, Les Ulis, France) including a personal computer (DESK PRO, Compaq, Houston, Tex.), a CCD video camera (Sony, Japan) and a Zeiss microscope (Jena, Germany). Sampling corresponded to 3 sections from 3 different lobes. The analysis was performed on an average of 50 fields per section using the ×4 objective. The whole surface of the sections was used for analysis with the exception of large centrolobular veins (diameter ≧150 μm) and large portal tracts. Fibrosis deposition was expressed as a percentage of stained areas on the total measured area.
Interassay variation was calculated in preliminary experiments and found to be 1.4%. When the percentage of reduction in areas of fibrosis consecutive to treatments was calculated, control values were first substracted.

The test system of a further series is type I collagen mRNA. In words: Liver type I collagen transcripts (quantitative RT-PCR, in situ hybridization). Format: in vivo, rat. Particulars: CCl4 with prazosin, 2 weeks. How it is done: In situ hybridization was performed on frozen sections according to a protocol described earlier, using [α^33P]UTP labeled riboprobes (Faouzi et al., 1999). The probe used was a 900 bp fragment of the rat α2(I) collagen cDNA, (Genovese et aL, 1984). The cDNA was subcloned into the pGEM5Z f(+) vector. Antisense and sense probes were generated by in vitro transcription. Their size was reduced to ˜250 nt by alkaline hydrolysis.
Total RNA was prepared from liver samples by the method of Chomczynski and Sacchi (1987), modified as described by Puissant and Houdebine (1990).
Type I collagen specific transcripts were quantified by a technique of quantitative RT-PCR, that has previously been described in detail (Bieche et al., 2000). Each sample was normalized on the basis of its expression of the RPLPO gene (also known as 36B4, encoding human acidic ribosomal phosphoprotein P0).

These results are taken from patent US6649615B2, “Method for inhibiting fibrogenesis” (Institute National de la Sante et de la Recherche Medicale …, priority 2002, dated 2003).

“TGFβ1: transforming growth factor β1, a major agonist of liver fibrogenesis”: the “TIMP-1/GAPDH ratio relative to control” value in the series with TIMP-1 mRNA (TGFβ1 0,1 ng/ml, 3 h) is reported as 1,56 ± 0,20; in the series with TIMP-1 mRNA (TGFβ1 0,1 ng/ml, 6 h), 1,38 ± 0,11; in the series with TIMP-1 mRNA (TGFβ1 0,1 ng/ml, 24 h), 1,33 ± 0,09.
Take `COc1cc2nc(N3CCN(C(=O)c4ccco4)CC3)nc(N)c2cc1OC` [prazosin, 1-(4-amino-6,7-dimethoxy-2-quinazolinyl)-4-(2-furanylcarbonyl) piperazine]: in the series on HSC-T6 (in the presence of 100 nM norepinephrin, 3 independent experiments in quadruplicate), the “effect on mitogenic effect of norepinephrin on HSC-T6” value is listed as “abolished”. Further, in the series on HSC-T6 (without norepinephrin), the “effect on HSC-T6 proliferation alone” value is recorded as “no effect”. Further, the “effect on the acute toxicity of CCl4 (biological tests and necrosis area)” value in series [1] is recorded as “did not decrease”. The “fibrosis area (histomorphometry)” value in series [2] (CCl4 with prazosin 50 mg/l in drinking water (group VI), CCl4 alone 2.35±0.41%) is recorded as 0.89±0.21%. In addition, in series [2] (prazosin with CCl4 vs CCl4 alone), the “decrease in fibrosis area” value is reported as 83%. Moreover, in the series with type I collagen mRNA, the “type I collagen transcripts by in situ hybridization” value is given as “large decrease in transcripts”.
For `NC[C@H](O)c1ccc(O)c(O)c1` [norepinephrin], the “concentration at plateau of HSC-T6 proliferation increase” value in the series with HSC-T6 (2 days exposure) amounted to 100 nM. The EC50 in the series with HSC-T6 (Rattus norvegicus, HSC-T6, 48 h, 2 days exposure, mean of 5 independent experiments in triplicate, read-out: Half-maximal effect on HSC-T6 proliferation) stood at 25 nM. Also, the “TIMP-1/GAPDH ratio relative to control” value in the series with TIMP-1 mRNA (Norepinephrin 100 nM, 3 h) is 1,30 ± 0,15; with TIMP-1 mRNA (Norepinephrin 100 nM, 6 h), 1,38 ± 0,13; in the series on TIMP-1 mRNA (Norepinephrin 100 nM, 24 h), 1,15 ± 0,18.
